Results: patent US20100104536A1, “P38 INHIBITORS” (priority 2007, published 2010)

Key:
[1] = tested on: IL-12p40; assay: Cytokine suppression in splenocytes: IL-12p40; type: cell-based, Balb/C mice; details: 48 hrs
Experimental: (§1) Naïve Balb/C mice were randomized in two groups. Mice from groups 1 and 2 were sacrificed and spleens were isolated. The Splenocytes were isolated and cultured in RPMI […] 1640 media with 10% FBS and 1% antibiotics in microtitre plate. Group 1 was incubated with PBS while group 2 was incubated with 10̂8 Mw cells. After 48 hrs the cell supernatant was separated and the levels of cytokines were checked using commercial kit from R & D systems (Cat # M2000, Cat # M4000B, Cat # M1240).
(§2) Naïve Balb/C mice were sacrificed and spleens were isolated for all five groups. The splenocytes were isolated from each group and cultured in RPMI 1640 media with […] in microtitre plate. The cells were plated in micro titer plate. The wells were divided into five sets. Set one was the control, set two was stimulated with Mw, set three with 10 mM of Dexamethasone set four with 10 mcM (micro mole) of Dexamethasone and set five with 1 mcM of dexammethasone. After 48 hrs of culture the cells were harvested and the cytokine assays were performed using commercial kits from R&D systems. (Cat #M5000, Cat #M4000B, Cat #M2000, Cat #M1240)

[2] = tested on: IL-2; assay: Cytokine suppression in splenocytes: IL-2; type: cell-based, Balb/C mice; details: 48 hrs
Experimental: as §1, §2

[3] = tested on: IL-5; assay: Cytokine suppression in splenocytes: IL-5; type: cell-based, Balb/C mice; details: 48 hrs
Experimental: as §1, §2

[4] = tested on: IL-4; assay: Cytokine suppression in splenocytes: IL-4; type: cell-based, Balb/C mice; details: 48 hrs
Experimental: as §1, §2

[5] = after administration of 200 mg of Dexamethasone intravenously; cited from earlier work

With `C[C@@H]1C[C@H]2[C@@H]3CCC4=CC(=O)C=C[C@]4(C)[C@@]3(F)[C@@H](O)C[C@]2(C)[C@@]1(O)C(=O)CO` [Dexamethasone] the “In vitro % inhibition of IL-12p40” value ([1]; Dexamethasone 1 mcM) was 33.7%, the “In vitro % inhibition of IL-12p40” value ([1]; Dexamethasone 10 mcM) was 47.1% and the inhibition at 10000 µM ([1]; Mus musculus, Splenocyte, Dexamethasone 10 mM, read-out: In vitro % inhibition of IL-12p40) was 57.7%. The “In vitro % inhibition of IL-2” value ([2]; Dexamethasone 1 mcM) was 25.6%, the “In vitro % inhibition of IL-2” value ([2]; Dexamethasone 10 mcM) was 33.7% and the inhibition at 10000 µM ([2]; Mus musculus, Splenocyte, Dexamethasone 10 mM, read-out: In vitro % inhibition of IL-2) was 70.6%. The “In vitro % inhibition of IL-5” value ([3]; Dexamethasone 1 mcM) was 43.9%, the “In vitro % inhibition of IL-5” value ([3]; Dexamethasone 10 mcM) was 70.3% and the inhibition at 10000 µM ([3]; Mus musculus, Splenocyte, Dexamethasone 10 mM, read-out: In vitro % inhibition of IL-5) was 85.8%. For the same compound, the “In vitro % inhibition of IL-4” value ([4]; Dexamethasone 1 mcM) was 61.9%, the “In vitro % inhibition of IL-4” value ([4]; Dexamethasone 10 mcM) was 84.5% and the inhibition at 10000 µM ([4]; Mus musculus, Splenocyte, Dexamethasone 10 mM, read-out: In vitro % inhibition of IL-4) was 93.7%. The Cmax [5] was 10000 µM.
